# Laboratory results taken from patent US8192951B2, “Glycolysis-inhibiting substances in cell culture” (Wyeth LLC, priority 2006, dated 2012).
# Experiments:
# [1] = test system: α-GDF-8 cells (CHO cells engineered to express a monoclonal antibody against GDF-8); experiment: Cell growth of α-GDF-8 cells in culture dishes with varying 2-deoxyglucose (Example 1); assay type: cell-based, Chinese Hamster
# Procedure: Materials and Methods: Chinese Hamster Ovary (“CHO”) cells engineered to express a monoclonal antibody against growth and differentiation factor 8 (“α-GDF-8 cells”) (see […] et al., Neutralizing Antibodies Against GDF-8 and Uses Therefor, US20040142382 A1) were grown in culture dishes in Medium 1 supplemented with glucose to a final initial concentration of 9 g/L with varying concentrations of 2-deoxyglucose.
# α-GDF-8 cells [2] = experiment: Lactate, growth, viability and titer of α-GDF-8 cells in culture dishes, two passages (Example 2); assay type: cell-based, Chinese Hamster; design: key to Gluc: glucose in g/L; viab: unit not given here
# Procedure: Materials and Methods: α-GDF-8 cells were grown in culture dishes in Medium 1 containing approximately 6 g/L glucose with varying concentrations of 2-deoxyglucose. Some α-GDF-8 cultures were optionally supplemented with glucose to a final initial concentration of 9 g/L. Cells were passaged twice and grown for three days after each passage. At the end of three days, each of the passaged cultures was measured for viability, cell density, glucose levels, lactate levels and α-GDF-8 titer. Specific titer production rate (“Qp”) and specific lactate uptake rate (“Qlact”) were calculated. Qlact was calculated as follows: ((final lactate level−initial lactate level)/(final cell density−initial cell density))×growth rate×24, where lactate levels are measured in g/L, cell densities are measured in 10^6 cells/ml, growth rate is measured as l/h, and the final Qlact is calculated as mg/e6/day. Qp was calculated as follows: ((final titer−initial titer)/(final cell density−initial cell density))×growth rate×24, where titer is measured in mg/L, cell density is measured in 10^6 cells/ml, growth rate is measured as 1/h, and Qp is calculated as μg/e6/day.
# α-GDF-8 cells [3] = experiment: α-GDF-8 cells in 1 L Bioreactors, shift on day 4 or day 6 (Example 3); assay type: cell-based, Chinese Hamster
# Procedure: Materials and Methods: α-GDF-8 cells were grown in Medium 2 in 1 L Bioreactors and fed with Medium 3. Some of the cultures were supplemented with 0.5 g/L 2-deoxyglucose at the beginning of the culture. The cultures were shifted from 37° Celsius to 31° Celsius on either day 4 (“early shift”) or day 6 (“late shift”). [table]
# α-GDF-8 cells [4] = experiment: α-GDF-8 cells in 1 L Bioreactors, shift on day 5 or day 6 (Example 4); assay type: cell-based, Chinese Hamster
# Procedure: Materials and Methods: α-GDF-8 cells were grown in Medium 2 in 1 L Bioreactors and fed with Medium 3. Some of the cultures were supplemented with 0.5 g/L 2-deoxyglucose at the beginning of the culture. The cells were fed with either 3 g/L glucose or 0.3 g/L 2-deoxyglucose on day 4 and with either 10% feed medium (by volume) or 10% feed medium (by volume) supplemented with 0.2 g/L 2-deoxyglucose on day 5. The cultures were shifted from 37° Celsius to 31° Celsius on either day 5 (“early shift”) or day 6 (“late shift”). Additional feeds were provided on days 7 and 10. [table]
# α-GDF-8 cells [5] = experiment: α-GDF-8 cells in 1 L Bioreactors in the presence of high glucose (Example 5); assay type: cell-based, Chinese Hamster; settings: 0.5 g/L 2-deoxyglucose
# Procedure: Materials and Methods: α-GDF-8 cells were grown in Medium 2 in 1 L Bioreactors and fed with Medium 3. The starting culture media were either supplemented or not with 0.5 g/L 2-deoxyglucose. The cells were fed on days 3, 5, 7, 10 and 12 to keep the glucose level at above approximately 8 g/L. The cultures lacking 2-deoxyglucose were shifted from 37° Celsius to 31° Celsius on day 4, while the cultures containing 2-deoxyglucose were shifted from 37° Celsius to 31° Celsius on day 5.
# rats = settings: fed to rats, without decreasing total food intake; cited from earlier work
# [6] = first passage, 0.25 g/L deoxyglucose, 9 g/L glucose
# [7] = first passage, 0.5 g/L deoxyglucose, 6 g/L glucose
# [8] = first passage, 0.5 g/L deoxyglucose, 9 g/L glucose
# [9] = first passage, 1 g/L deoxyglucose, 9 g/L glucose
# [10] = second passage, 0.25 g/L deoxyglucose, 9 g/L glucose
# [11] = second passage, 0.5 g/L deoxyglucose, 6 g/L glucose
# [12] = second passage, 0.5 g/L deoxyglucose, 9 g/L glucose
# [13] = second passage, 1 g/L deoxyglucose, 6 g/L glucose
# [14] = second passage, 1 g/L deoxyglucose, 9 g/L glucose
# [15] = 0.5 g/L 2-deoxyglucose, early shift (day 4)
# [16] = 0.5 g/L 2-deoxyglucose, late shift (day 6)
compound,measurement,setting,value
O=CC[C@@H](O)[C@H](O)[C@H](O)CO [2-deoxyglucose],specific growth rate (μ),"[1]; 1 g/L 2-deoxyglucose, 9 g/L glucose (ratio 1:9)",over 0.02 l/h
same,specific growth rate (μ),"[1]; 2.5 g/L 2-deoxyglucose, 9 g/L glucose",approximately 0.015 l/h
same,effect of increasing amounts on specific growth rate,[1]; 9 g/L glucose,reduced the specific growth rate in a dose-dependent manner
same,effect on accumulation of lactate,"α-GDF-8 cells [2]; culture dishes, dose-dependent",reduced the accumulation of lactate in the culture in a dose-dependent manner
same,effect on specific growth rate,"α-GDF-8 cells [2]; culture dishes, dose-dependent",negatively affected
same,effect on α-GDF-8 titer,"α-GDF-8 cells [2]; culture dishes, dose-dependent",reduced the α-GDF-8 titer in a dose-dependent manner
same,Gluc,α-GDF-8 cells [2]; [6],7.55
same,Qlact,α-GDF-8 cells [2]; [6],0.899 mg/e6/day
same,c.d (end),α-GDF-8 cells [2]; [6],1.3 10^6 cells/ml
same,lact,α-GDF-8 cells [2]; [6],1.53 g/L
same,viab,α-GDF-8 cells [2]; [6],99.7
same,μ (specific growth rate),α-GDF-8 cells [2]; [6],0.032 h⁻¹
same,Gluc,α-GDF-8 cells [2]; [7],5.21
same,Qlact,α-GDF-8 cells [2]; [7],0.701 mg/e6/day
same,c.d (end),α-GDF-8 cells [2]; [7],1.24 10^6 cells/ml
same,lact,α-GDF-8 cells [2]; [7],1.2 g/L
same,viab,α-GDF-8 cells [2]; [7],99.1
same,μ (specific growth rate),α-GDF-8 cells [2]; [7],0.03 h⁻¹
same,Gluc,α-GDF-8 cells [2]; [8],7.88
same,Qlact,α-GDF-8 cells [2]; [8],0.727 mg/e6/day
same,c.d (end),α-GDF-8 cells [2]; [8],1.12 10^6 cells/ml
same,lact,α-GDF-8 cells [2]; [8],1.22 g/L
same,viab,α-GDF-8 cells [2]; [8],99.3
same,μ (specific growth rate),α-GDF-8 cells [2]; [8],0.028 h⁻¹
same,Gluc,α-GDF-8 cells [2]; [9],8.13
same,Qlact,α-GDF-8 cells [2]; [9],0.553 mg/e6/day
same,c.d (end),α-GDF-8 cells [2]; [9],1.05 10^6 cells/ml
same,lact,α-GDF-8 cells [2]; [9],0.9 g/L
same,viab,α-GDF-8 cells [2]; [9],99.7
same,μ (specific growth rate),α-GDF-8 cells [2]; [9],0.027 h⁻¹
same,Gluc,α-GDF-8 cells [2]; [10],7.25
same,Qlact,α-GDF-8 cells [2]; [10],0.576 mg/e6/day
same,Qp,α-GDF-8 cells [2]; [10],15.477 μg/e6/day
same,c.d (end),α-GDF-8 cells [2]; [10],3.2 10^6 cells/ml
same,lact,α-GDF-8 cells [2]; [10],2.17 g/L
same,titer (α-GDF-8),α-GDF-8 cells [2]; [10],58.28 mg/L
same,viab,α-GDF-8 cells [2]; [10],99.5
same,μ (specific growth rate),α-GDF-8 cells [2]; [10],0.035 h⁻¹
same,Gluc,α-GDF-8 cells [2]; [11],5.04
same,Qlact,α-GDF-8 cells [2]; [11],0.415 mg/e6/day
same,Qp,α-GDF-8 cells [2]; [11],13.135 μg/e6/day
same,c.d (end),α-GDF-8 cells [2]; [11],2.6 10^6 cells/ml
same,lact,α-GDF-8 cells [2]; [11],1.36 g/L
same,titer (α-GDF-8),α-GDF-8 cells [2]; [11],43 mg/L
same,viab,α-GDF-8 cells [2]; [11],99
same,μ (specific growth rate),α-GDF-8 cells [2]; [11],0.033 h⁻¹
same,Gluc,α-GDF-8 cells [2]; [12],7.65
same,Qlact,α-GDF-8 cells [2]; [12],0.506 mg/e6/day
same,Qp,α-GDF-8 cells [2]; [12],14.252 μg/e6/day
same,c.d (end),α-GDF-8 cells [2]; [12],2.8 10^6 cells/ml
same,lact,α-GDF-8 cells [2]; [12],1.79 g/L
same,titer (α-GDF-8),α-GDF-8 cells [2]; [12],50.37 mg/L
same,viab,α-GDF-8 cells [2]; [12],99.6
same,μ (specific growth rate),α-GDF-8 cells [2]; [12],0.033 h⁻¹
same,Gluc,α-GDF-8 cells [2]; [13],6.51
same,Qlact,α-GDF-8 cells [2]; [13],0.290 mg/e6/day
same,Qp,α-GDF-8 cells [2]; [13],12.038 μg/e6/day
same,c.d (end),α-GDF-8 cells [2]; [13],1.5 10^6 cells/ml
same,lact,α-GDF-8 cells [2]; [13],0.68 g/L
same,titer (α-GDF-8),α-GDF-8 cells [2]; [13],28.22 mg/L
same,viab,α-GDF-8 cells [2]; [13],98.6
same,μ (specific growth rate),α-GDF-8 cells [2]; [13],0.027 h⁻¹
same,Gluc,α-GDF-8 cells [2]; [14],9
same,Qlact,α-GDF-8 cells [2]; [14],0.290 mg/e6/day
same,Qp,α-GDF-8 cells [2]; [14],12.400 μg/e6/day
same,c.d (end),α-GDF-8 cells [2]; [14],1.9 10^6 cells/ml
same,lact,α-GDF-8 cells [2]; [14],0.98 g/L
same,titer (α-GDF-8),α-GDF-8 cells [2]; [14],34.85 mg/L
same,viab,α-GDF-8 cells [2]; [14],99
same,μ (specific growth rate),α-GDF-8 cells [2]; [14],0.028 h⁻¹
same,Qlact,"α-GDF-8 cells [2]; second passage, 1 g/L deoxyglucose, 9 g/L glucose, listed as 2-Deoxyglucose",0.349 mg/e6/day
same,effect on viability of the cells,α-GDF-8 cells [2]; up to a ratio of 2-deoxyglucose to glucose of 1 to 6,largely unaffected
same,final titer vs culture lacking 2-deoxyglucose,α-GDF-8 cells [3]; [15],slightly higher
same,lactate levels vs culture lacking 2-deoxyglucose,α-GDF-8 cells [3]; [15],slightly lower
same,cell density at the time of the shift,α-GDF-8 cells [3]; [16],approximately 18 ×e^6/mL
same,final titer vs culture lacking 2-deoxyglucose,α-GDF-8 cells [3]; [16],slightly higher
same,lactate level at the time of the shift,α-GDF-8 cells [3]; [16],approximately 6 g/L
same,lactate levels vs culture lacking 2-deoxyglucose,α-GDF-8 cells [3]; [16],slightly lower
same,viability vs late shifted cells without 2-deoxyglucose,α-GDF-8 cells [3]; [16],significantly higher
same,cell density vs the other three conditions,"α-GDF-8 cells [3]; 0.5 g/L 2-deoxyglucose, late shift (day 6), from approximately day 4",significantly higher
same,lactate level at the time of the shift,"α-GDF-8 cells [3]; early shift (day 4), stated for the two early shifted cultures, with and without 2-deoxyglucose",4 to 5 g/L
same,final lactate concentration vs early shifted cultures,α-GDF-8 cells [4]; [16],lower
same,α-GDF-8 produced per cell vs other three conditions,α-GDF-8 cells [4]; [16],less α-GDF-8 per cell
same,cell density vs the other three conditions,"α-GDF-8 cells [4]; 0.5 g/L 2-deoxyglucose, late shift (day 6), from approximately day 5",significantly higher
same,glucose uptake,"α-GDF-8 cells [4]; 2-deoxyglucose in the culture medium, early and late shift",decrease
same,overall titer of α-GDF-8 vs other culture conditions,α-GDF-8 cells [4]; all four culture conditions,similar
same,lactate accumulation vs cultures lacking 2-deoxyglucose,"α-GDF-8 cells [5]; glucose above approximately 8 g/L, shift day 5",significantly lower
same,α-GDF-8 titer vs culture lacking 2-deoxyglucose,"α-GDF-8 cells [5]; high glucose, by day 14",slightly higher
same,cell density vs culture lacking 2-deoxyglucose,"α-GDF-8 cells [5]; high glucose, middle stage of the culture",slightly higher
same,overall integrated viable cell density vs cells without 2-deoxyglucose,"α-GDF-8 cells [5]; high glucose, shifted one day later",higher
same,glucose/energy flux,rats,reduces glucose/energy flux
